What all share (assay): cell-based
Assay [1] has as its target T1, hNav1.4 (Homo sapiens, UniProt P35499). In kind it is cell-based. The conditions noted are these: ratio of IonWorks Quattro IC50 values; Table 9.
The target in a further assay is hNav1.5 (Homo sapiens, UniProt Q14524). The conditions noted are these: for Nav1.5/Nav1.7: ratio of PX tonic IC50 values; for IC50: read-out: PX hNav1.5 Tonic IC50.
Assay [2] has as its target T1, hNav1.4. In kind it is cell-based. The conditions noted are these: for Nav1.4/Nav1.7: ratio of PX tonic IC50 values; for IC50: read-out: PX hNav1.4 Tonic IC50.
The target of a further assay is hNav1.7 (Homo sapiens, UniProt Q15858). In kind it is cell-based. The conditions noted are these: for IC50: read-out: PX hNav1.7 Tonic IC50.
Chain of hNav1.7 (Q15858 whole entry): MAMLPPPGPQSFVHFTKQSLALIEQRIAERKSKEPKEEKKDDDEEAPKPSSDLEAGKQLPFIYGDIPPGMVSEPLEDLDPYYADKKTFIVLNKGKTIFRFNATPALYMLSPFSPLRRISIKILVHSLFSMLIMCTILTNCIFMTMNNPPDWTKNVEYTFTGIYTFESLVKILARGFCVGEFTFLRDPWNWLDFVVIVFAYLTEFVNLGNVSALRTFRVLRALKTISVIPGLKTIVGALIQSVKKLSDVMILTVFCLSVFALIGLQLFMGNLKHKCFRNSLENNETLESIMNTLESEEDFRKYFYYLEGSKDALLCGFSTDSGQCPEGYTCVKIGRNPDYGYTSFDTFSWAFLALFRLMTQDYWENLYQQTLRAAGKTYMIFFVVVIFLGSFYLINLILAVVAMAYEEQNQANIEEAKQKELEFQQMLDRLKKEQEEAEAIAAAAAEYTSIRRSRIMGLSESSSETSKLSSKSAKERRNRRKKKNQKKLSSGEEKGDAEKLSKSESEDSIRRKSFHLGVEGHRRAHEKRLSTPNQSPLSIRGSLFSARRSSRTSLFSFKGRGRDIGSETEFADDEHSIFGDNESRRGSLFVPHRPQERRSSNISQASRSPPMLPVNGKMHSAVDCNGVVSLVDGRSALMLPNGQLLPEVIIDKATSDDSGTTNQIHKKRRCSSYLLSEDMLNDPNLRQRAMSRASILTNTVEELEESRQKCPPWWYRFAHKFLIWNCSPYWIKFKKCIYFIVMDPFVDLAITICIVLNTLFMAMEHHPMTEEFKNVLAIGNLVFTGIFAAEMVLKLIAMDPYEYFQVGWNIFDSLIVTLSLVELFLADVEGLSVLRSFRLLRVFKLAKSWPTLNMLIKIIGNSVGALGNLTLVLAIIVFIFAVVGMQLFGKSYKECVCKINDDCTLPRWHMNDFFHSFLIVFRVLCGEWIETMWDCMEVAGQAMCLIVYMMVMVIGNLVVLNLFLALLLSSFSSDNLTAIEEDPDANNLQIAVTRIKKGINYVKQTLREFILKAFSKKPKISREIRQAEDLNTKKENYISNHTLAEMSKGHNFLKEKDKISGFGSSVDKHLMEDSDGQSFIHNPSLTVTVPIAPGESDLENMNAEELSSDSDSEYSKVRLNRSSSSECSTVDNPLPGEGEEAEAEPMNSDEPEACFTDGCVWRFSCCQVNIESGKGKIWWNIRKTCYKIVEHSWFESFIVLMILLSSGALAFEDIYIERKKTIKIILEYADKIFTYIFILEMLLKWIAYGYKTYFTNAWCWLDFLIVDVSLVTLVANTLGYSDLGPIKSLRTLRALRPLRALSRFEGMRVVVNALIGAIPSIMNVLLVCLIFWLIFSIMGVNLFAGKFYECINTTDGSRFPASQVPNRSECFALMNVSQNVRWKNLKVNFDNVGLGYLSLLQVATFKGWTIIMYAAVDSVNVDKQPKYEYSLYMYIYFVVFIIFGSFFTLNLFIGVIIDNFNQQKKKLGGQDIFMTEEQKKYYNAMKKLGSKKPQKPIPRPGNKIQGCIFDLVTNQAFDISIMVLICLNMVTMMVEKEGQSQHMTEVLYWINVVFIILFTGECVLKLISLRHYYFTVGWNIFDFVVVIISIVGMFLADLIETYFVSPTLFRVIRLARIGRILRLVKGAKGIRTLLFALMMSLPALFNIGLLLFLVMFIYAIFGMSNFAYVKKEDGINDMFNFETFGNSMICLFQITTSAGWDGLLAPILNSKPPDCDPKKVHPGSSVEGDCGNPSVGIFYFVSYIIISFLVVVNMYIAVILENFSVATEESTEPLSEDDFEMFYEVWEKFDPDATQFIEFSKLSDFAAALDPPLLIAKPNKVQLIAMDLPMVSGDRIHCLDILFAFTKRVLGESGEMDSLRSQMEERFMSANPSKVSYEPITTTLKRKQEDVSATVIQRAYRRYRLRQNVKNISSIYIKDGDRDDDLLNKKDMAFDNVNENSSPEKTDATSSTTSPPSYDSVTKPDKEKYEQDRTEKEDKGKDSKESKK
A further assay deals with hNav1.6 (Homo sapiens, UniProt Q9UQD0). In kind it is cell-based. The conditions noted are these: Table 15; for Nav1.6/Nav1.7: ratio of PX tonic IC50 values; for IC50: read-out: PX hNav1.6 Tonic IC50.
Setting [3] is: Table 12, PatchXpress, tonic block.
The mark [4] stands for this setting: ratio of PX tonic IC50 values, Table 11.

Where two headings read alike, the source gives them in different places. Bounds are passed on as bounds.

Chain of hNav1.5 (Q14524 whole entry): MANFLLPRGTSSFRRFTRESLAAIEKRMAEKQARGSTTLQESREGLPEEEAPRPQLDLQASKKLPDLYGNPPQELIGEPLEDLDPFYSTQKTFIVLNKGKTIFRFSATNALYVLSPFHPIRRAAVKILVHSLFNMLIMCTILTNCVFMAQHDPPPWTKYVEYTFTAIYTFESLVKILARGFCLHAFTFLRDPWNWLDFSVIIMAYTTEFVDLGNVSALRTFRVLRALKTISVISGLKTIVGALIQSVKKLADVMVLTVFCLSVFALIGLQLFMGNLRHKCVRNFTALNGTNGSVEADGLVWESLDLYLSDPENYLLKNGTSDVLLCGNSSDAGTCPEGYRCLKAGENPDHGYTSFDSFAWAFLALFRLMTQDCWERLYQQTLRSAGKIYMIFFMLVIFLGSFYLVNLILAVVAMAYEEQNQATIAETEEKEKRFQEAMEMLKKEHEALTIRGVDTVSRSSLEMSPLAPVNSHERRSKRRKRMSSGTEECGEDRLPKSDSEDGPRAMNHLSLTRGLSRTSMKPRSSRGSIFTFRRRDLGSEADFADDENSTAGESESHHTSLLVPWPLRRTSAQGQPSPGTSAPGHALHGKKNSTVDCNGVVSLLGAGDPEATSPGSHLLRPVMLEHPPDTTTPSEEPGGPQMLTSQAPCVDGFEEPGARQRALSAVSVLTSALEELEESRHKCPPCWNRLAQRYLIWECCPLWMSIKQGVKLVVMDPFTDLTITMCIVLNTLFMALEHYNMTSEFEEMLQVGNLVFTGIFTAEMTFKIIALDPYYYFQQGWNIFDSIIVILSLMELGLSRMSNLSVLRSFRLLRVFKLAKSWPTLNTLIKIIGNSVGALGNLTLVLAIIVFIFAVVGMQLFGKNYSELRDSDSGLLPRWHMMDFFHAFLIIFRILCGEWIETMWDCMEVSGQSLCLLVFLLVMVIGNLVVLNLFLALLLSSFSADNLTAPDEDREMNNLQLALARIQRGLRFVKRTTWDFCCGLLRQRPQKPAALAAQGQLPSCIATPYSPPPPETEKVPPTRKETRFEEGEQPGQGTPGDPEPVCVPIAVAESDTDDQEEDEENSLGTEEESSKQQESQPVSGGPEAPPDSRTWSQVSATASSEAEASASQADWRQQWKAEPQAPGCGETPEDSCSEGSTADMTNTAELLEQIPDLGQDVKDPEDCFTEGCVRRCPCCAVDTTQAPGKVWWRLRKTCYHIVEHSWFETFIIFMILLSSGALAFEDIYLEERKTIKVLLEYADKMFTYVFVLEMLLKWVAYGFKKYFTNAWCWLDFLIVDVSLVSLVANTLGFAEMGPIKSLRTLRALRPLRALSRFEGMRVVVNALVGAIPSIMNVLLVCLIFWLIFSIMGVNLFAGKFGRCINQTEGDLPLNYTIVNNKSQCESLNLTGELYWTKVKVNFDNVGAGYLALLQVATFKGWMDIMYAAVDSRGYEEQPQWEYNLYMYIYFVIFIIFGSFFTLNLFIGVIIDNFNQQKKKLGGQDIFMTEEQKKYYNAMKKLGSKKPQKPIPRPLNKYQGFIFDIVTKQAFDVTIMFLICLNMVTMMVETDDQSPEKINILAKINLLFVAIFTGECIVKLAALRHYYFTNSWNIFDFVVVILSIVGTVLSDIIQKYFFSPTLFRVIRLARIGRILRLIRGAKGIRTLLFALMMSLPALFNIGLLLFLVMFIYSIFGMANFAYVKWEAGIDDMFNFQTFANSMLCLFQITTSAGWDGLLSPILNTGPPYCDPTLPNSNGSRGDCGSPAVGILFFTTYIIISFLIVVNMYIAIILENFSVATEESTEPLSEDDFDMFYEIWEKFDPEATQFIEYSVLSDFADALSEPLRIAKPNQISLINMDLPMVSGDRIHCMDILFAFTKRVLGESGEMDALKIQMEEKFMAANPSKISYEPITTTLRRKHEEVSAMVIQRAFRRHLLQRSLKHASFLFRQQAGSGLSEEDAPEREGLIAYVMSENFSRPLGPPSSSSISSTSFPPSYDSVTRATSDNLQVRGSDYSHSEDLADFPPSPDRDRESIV

Regarding `C#CC[C@@H]1NC(=O)[C@H](CCCNC(=N)N)NC(=O)[C@H](CCCCN)NC(=O)[C@H](CO)NC(=O)[C@H](CC(=O)O)NC(=O)[C@@H]2CSSC[C@@H]3NC(=O)[C@H](CCCNC(=N)N)NC(=O)[C@H](CC(C)C)NC(=O)CNC(=O)[C@H](CCC(=O)O)NC(=O)[C@H](CSSC[C@H](NC(=O)[C@@H](N)Cc4ccc(O)cc4)C(=O)N[C@@H](CCC(N)=O)C(=O)N[C@@H](CCCCN)C(=O)N[C@@H](Cc4c[nH]c5ccccc45)C(=O)N[C@@H](CCCC)C(=O)N[C@@H](Cc4c[nH]c5ccccc45)C(=O)N[C@@H]([C@@H](C)O)C(=O)N2)NC(=O)[C@H](CSSC[C@@H](C(=O)N[C@@H](CCCNC(=N)N)C(=O)N[C@@H](CCCCN)C(=O)N[C@H](C(=O)N[C@H](C(N)=O)[C@@H](C)CC)[C@@H](C)CC)NC(=O)[C@H](Cc2c[nH]c4ccccc24)NC(=O)[C@H](CC(C)C)NC(=O)[C@H](CCCCN)NC3=O)NC1=O` [compound 283], the values for the Nav1.4/Nav1.7 at hNav1.4 [1] and on hNav1.4 [2] (Table 12) were 1 and 17, respectively. In addition, the Nav1.5/Nav1.7 on hNav1.5 (Table 12) is 2090.

In the case of `C#CC[C@H](N)C(=O)NCCOCCOCCOCCOCCC(=O)NCCCC[C@@H]1NC(=O)[C@H](CCCNC(=N)N)NC(=O)[C@H](CCCCN)NC(=O)[C@H](CO)NC(=O)[C@H](CC(=O)O)NC(=O)[C@@H]2CSSC[C@@H]3NC(=O)[C@H](CCCNC(=N)N)NC(=O)[C@H](CC(C)C)NC(=O)CNC(=O)[C@H](CCC(=O)O)NC(=O)[C@H](CSSC[C@H](NC(=O)[C@H](Cc4ccc(O)cc4)NC(=O)[C@@H](N)CC#N)C(=O)N[C@@H](CCC(N)=O)C(=O)N[C@@H](CCCCN)C(=O)N[C@@H](Cc4c[nH]c5ccccc45)C(=O)N[C@@H](CCCC)C(=O)N[C@@H](Cc4c[nH]c5ccccc45)C(=O)N[C@@H]([C@@H](C)O)C(=O)N2)NC(=O)[C@H](CSSC[C@@H](C(=O)N[C@@H](CCCNC(=N)N)C(=O)N[C@@H](CCCCN)C(=O)N[C@H](C(=O)N[C@H](C(N)=O)[C@@H](C)CC)[C@@H](C)CC)NC(=O)[C@H](Cc2c[nH]c4ccccc24)NC(=O)[C@H](CC(C)C)NC(=O)[C@H](CCCCN)NC3=O)NC1=O` [compound 380], the Nav1.5/Nav1.7 on hNav1.5 (Table 12) was 0. For the same compound, the IC50 at hNav1.7 (setting [3]) amounted to 0.845 nM. In addition, the Nav1.4/Nav1.7 at hNav1.4 [2] (Table 12) came out at 0.

With `CCC[C@H](N)C(=O)N[C@@H](Cc1ccc(O)cc1)C(=O)N[C@H]1CSSC[C@@H]2NC(=O)[C@@H]3CSSC[C@@H](C(=O)N[C@@H](CCCNC(=N)N)C(=O)N[C@@H](CCCCN)C(=O)N[C@H](C(=O)N[C@H](C(N)=O)[C@@H](C)CC)[C@@H](C)CC)NC(=O)[C@H](Cc4c[nH]c5ccccc45)NC(=O)[C@H](CC(C)C)NC(=O)[C@H](CCCCN)NC(=O)[C@H](CSSC[C@H](NC(=O)[C@H]([C@@H](C)O)NC(=O)[C@H](Cc4c[nH]c5ccccc45)NC(=O)[C@H](CC(C)C)NC(=O)[C@H](Cc4c[nH]c5ccccc45)NC(=O)[C@H](CCCCN)NC(=O)[C@H](CCC(N)=O)NC1=O)C(=O)N[C@@H](CC(=O)O)C(=O)N[C@@H](CO)C(=O)N[C@@H](CCCCN)C(=O)N[C@@H](CCCNC(=N)N)C(=O)N[C@@H](CCCCNC(=O)[C@@H](N)Cc1cn(CCOCCOCCOCCOCCOCCOCCOCCOCCOCCOCCN)nn1)C(=O)N3)NC(=O)[C@H](CCCNC(=N)N)NC(=O)[C@H](CC(C)C)NC(=O)CNC(=O)[C@H](CCC(=O)O)NC2=O` [compound 446], at hNav1.5 (Table 13), the Nav1.5/Nav1.7 is 207. In addition, the IC50 was determined as 2410 nM at hNav1.5, 11.6 nM at hNav1.7 and 128 nM on hNav1.4 [2]. For the same compound, at hNav1.4 [2] (Table 13), the Nav1.4/Nav1.7 amounted to 11.

Regarding `C#CC[C@H](N)C(=O)N[C@@H](Cc1ccc(O)cc1)C(=O)N[C@H]1CSSC[C@@H]2NC(=O)[C@@H]3CSSC[C@@H](C(=O)N[C@@H](CCCNC(=N)N)C(=O)N[C@@H](CCCCN)C(=O)N[C@@H](CCC(N)=O)C(=O)N[C@H](C(N)=O)[C@@H](C)CC)NC(=O)[C@H](Cc4c[nH]c5ccccc45)NC(=O)[C@H](CC(C)C)NC(=O)[C@H](CCCCN)NC(=O)[C@H](CSSC[C@H](NC(=O)[C@H]([C@@H](C)O)NC(=O)[C@H](Cc4c[nH]c5ccccc45)NC(=O)[C@H](CCCC)NC(=O)[C@H](Cc4c[nH]c5ccccc45)NC(=O)[C@H](CCCCN)NC(=O)[C@H](CCC(N)=O)NC1=O)C(=O)N[C@@H](CC(=O)O)C(=O)N[C@@H](CO)C(=O)N[C@@H](CCCCN)C(=O)N[C@@H](CCCNC(=N)N)C(=O)N[C@@H](C)C(=O)N3)NC(=O)[C@H](CCCNC(=N)N)NC(=O)[C@H](CC(C)C)NC(=O)CNC(=O)[C@H](CCC(=O)O)NC2=O` [compound 665], the IC50 at hNav1.5 (setting [3]) was 3220 nM; at hNav1.7 (setting [3]), 0.912 nM; at hNav1.4 [2] (setting [3]) it was 10.7 nM. Besides, the Nav1.5/Nav1.7 on hNav1.5 (Table 12) worked out at 3529. On hNav1.4 [2] (Table 12), the Nav1.4/Nav1.7 came to 12.

Regarding `CCCC[C@@H]1NC(=O)[C@H](Cc2c[nH]c3ccccc23)NC(=O)[C@H](CCCCN)NC(=O)[C@H](CCC(N)=O)NC(=O)[C@@H](NC(=O)[C@H](Cc2ccc(O)cc2)NC(=O)[C@@H](N)CCC(=O)O)CSSC[C@@H]2NC(=O)[C@@H]3CSSC[C@@H](C(=O)N[C@@H](CCCNC(=N)N)C(=O)N[C@@H](CCCCN)C(=O)N[C@@H](CCC(=O)O)C(=O)N[C@H](C(N)=O)[C@@H](C)CC)NC(=O)[C@H](Cc4c[nH]c5ccccc45)NC(=O)[C@H](CC(C)C)NC(=O)[C@H](CCCCN)NC(=O)[C@H](CSSC[C@H](NC(=O)[C@H]([C@@H](C)O)NC(=O)[C@H](Cc4c[nH]c5ccccc45)NC1=O)C(=O)N[C@@H](CC(=O)O)C(=O)N[C@@H](CO)C(=O)N[C@@H](CCCCN)C(=O)N[C@@H](CCCNC(=N)N)C(=O)N[C@@H](C)C(=O)N3)NC(=O)[C@H](CCCNC(=N)N)NC(=O)[C@H](CC(C)C)NC(=O)CNC(=O)[C@H](CCC(=O)O)NC2=O` [compound 708], the Nav1.6/Nav1.7 at hNav1.6 turned out to be 682. Moreover, the IC50 on hNav1.6 amounted to 522 nM; on hNav1.5 (PatchXpress, tonic, Table 11) it was 7600 nM; on hNav1.7 (PatchXpress, tonic, Table 11), 0.765 nM; on hNav1.4 [2] (PatchXpress, tonic, Table 11) it was 99.2 nM. Also, on hNav1.7 (setting [4]), the Nav1.4/Nav1.7 turned out to be 130. Also, the Nav1.5/Nav1.7 on hNav1.7 (setting [4]) worked out at 9941.

Take `C#CC[C@H](N)C(=O)N[C@@H](CCC(=O)O)C(=O)N[C@H]1CSSC[C@@H]2NC(=O)[C@@H]3CSSC[C@@H](C(=O)N[C@@H](CCCNC(=N)N)C(=O)N[C@@H](CCCCN)C(=O)N[C@@H](CCC(=O)O)C(=O)N[C@H](C(N)=O)[C@@H](C)CC)NC(=O)[C@H](Cc4c[nH]c5ccccc45)NC(=O)[C@H](CC(C)C)NC(=O)[C@H](CCCCN)NC(=O)[C@H](CSSC[C@H](NC(=O)[C@H]([C@@H](C)O)NC(=O)[C@H](Cc4c[nH]c5ccccc45)NC(=O)[C@H](CCCC)NC(=O)[C@H](Cc4c[nH]c5ccccc45)NC(=O)[C@H](CCCCN)NC(=O)[C@H](CCC(N)=O)NC1=O)C(=O)N[C@@H](CC(=O)O)C(=O)N[C@@H](CO)C(=O)N[C@@H](CCCCN)C(=O)N[C@@H](CCCNC(=N)N)C(=O)N[C@@H](C)C(=O)N3)NC(=O)[C@H](CCCNC(=N)N)NC(=O)[C@H](CC(C)C)NC(=O)CNC(=O)[C@H](CCC(=O)O)NC2=O` [compound 709]: on hNav1.6, the Nav1.6/Nav1.7 was determined as 518. For the same compound, the IC50 on hNav1.6 is 584 nM; at hNav1.5 (setting [3]) it was more than 1000 nM; at hNav1.7 (setting [3]), 1.13 nM; at hNav1.4 [2] (setting [3]), 185 nM. Besides, on hNav1.5 (Table 12), the Nav1.5/Nav1.7 was more than 887. Besides, at hNav1.4 [2] (Table 12), the Nav1.4/Nav1.7 was 164.

For the compound `C#CC[C@H](N)C(=O)N[C@@H](Cc1ccc(O)cc1)C(=O)N[C@H]1CSSC[C@@H]2NC(=O)[C@@H]3CSSC[C@@H](C(=O)N[C@@H](CCCNC(=N)N)C(=O)N[C@@H](CCCCN)C(=O)N[C@@H](CCC(=O)O)C(=O)N[C@H](C(N)=O)[C@@H](C)CC)NC(=O)[C@H](Cc4c[nH]c5ccccc45)NC(=O)[C@H](CC(C)C)NC(=O)[C@H](CCCCN)NC(=O)[C@H](CSSC[C@H](NC(=O)[C@H]([C@@H](C)O)NC(=O)[C@H](Cc4c[nH]c5ccccc45)NC(=O)[C@H](CCCC)NC(=O)[C@H](Cc4c[nH]c5ccccc45)NC(=O)[C@H](CCCCN)NC(=O)[C@H](CCC(N)=O)NC1=O)C(=O)N[C@@H](CC(=O)O)C(=O)N[C@@H](CCC(=O)O)C(=O)N[C@@H](CCCCN)C(=O)N[C@@H](CCCNC(=N)N)C(=O)N[C@@H](C)C(=O)N3)NC(=O)[C@H](CCCNC(=N)N)NC(=O)[C@H](CC(C)C)NC(=O)CNC(=O)[C@H](CCC(=O)O)NC2=O` [compound 714], on hNav1.6, the Nav1.6/Nav1.7 came to 737. On hNav1.5 (Table 12), the Nav1.5/Nav1.7 was more than 6341. In addition, the Nav1.4/Nav1.7 at hNav1.4 [2] (Table 12) came out at 241.

As to `CCCC[C@@H]1NC(=O)[C@H](Cc2c[nH]c3ccccc23)NC(=O)[C@H](CCCCN)NC(=O)[C@H](CCC(N)=O)NC(=O)[C@@H](NC(=O)[C@H](Cc2ccc(O)cc2)NC(=O)[C@@H](N)Cc2cn(CCCCCCNC(=O)CCOCCOCCOCCOCCNC(=O)CCCC[C@@H]3SC[C@@H]4NC(=O)N[C@@H]43)nn2)CSSC[C@@H]2NC(=O)[C@@H]3CSSC[C@@H](C(=O)N[C@@H](CCCNC(=N)N)C(=O)N[C@@H](CCCCN)C(=O)N[C@H](C(=O)N[C@H](C(N)=O)[C@@H](C)CC)[C@@H](C)CC)NC(=O)[C@H](Cc4c[nH]c5ccccc45)NC(=O)[C@H](CC(C)C)NC(=O)[C@H](CCCCN)NC(=O)[C@H](CSSC[C@H](NC(=O)[C@H]([C@@H](C)O)NC(=O)[C@H](Cc4c[nH]c5ccccc45)NC1=O)C(=O)N[C@@H](CC(=O)O)C(=O)N[C@@H](CO)C(=O)N[C@@H](CCCCN)C(=O)N[C@@H](CCCNC(=N)N)C(=O)N[C@@H](C)C(=O)N3)NC(=O)[C@H](CCCNC(=N)N)NC(=O)[C@H](CC(C)C)NC(=O)CNC(=O)[C@H](CCC(=O)O)NC2=O` [compound 898], the Nav1.5/Nav1.7 at hNav1.5 (Table 13) is recorded as 2067. In addition, the IC50 on hNav1.5 is 5130 nM; at hNav1.7, 2.48 nM; on hNav1.4 [2], 15.5 nM. Also, the Nav1.4/Nav1.7 at hNav1.4 [2] (Table 13) is listed as 6.

The values above are taken from patent publication US10344060B2 (priority 2013, dated 2019).
